{"source": "ChEMBL document CHEMBL1201862", "about": "“PubChem BioAssay data set” (2004)", "key": {"Beta-galactosidase": {"biological_target": "Beta-galactosidase (Escherichia coli, UniProt Q8VNN2)", "sequence (Q8VNN2 whole entry)": "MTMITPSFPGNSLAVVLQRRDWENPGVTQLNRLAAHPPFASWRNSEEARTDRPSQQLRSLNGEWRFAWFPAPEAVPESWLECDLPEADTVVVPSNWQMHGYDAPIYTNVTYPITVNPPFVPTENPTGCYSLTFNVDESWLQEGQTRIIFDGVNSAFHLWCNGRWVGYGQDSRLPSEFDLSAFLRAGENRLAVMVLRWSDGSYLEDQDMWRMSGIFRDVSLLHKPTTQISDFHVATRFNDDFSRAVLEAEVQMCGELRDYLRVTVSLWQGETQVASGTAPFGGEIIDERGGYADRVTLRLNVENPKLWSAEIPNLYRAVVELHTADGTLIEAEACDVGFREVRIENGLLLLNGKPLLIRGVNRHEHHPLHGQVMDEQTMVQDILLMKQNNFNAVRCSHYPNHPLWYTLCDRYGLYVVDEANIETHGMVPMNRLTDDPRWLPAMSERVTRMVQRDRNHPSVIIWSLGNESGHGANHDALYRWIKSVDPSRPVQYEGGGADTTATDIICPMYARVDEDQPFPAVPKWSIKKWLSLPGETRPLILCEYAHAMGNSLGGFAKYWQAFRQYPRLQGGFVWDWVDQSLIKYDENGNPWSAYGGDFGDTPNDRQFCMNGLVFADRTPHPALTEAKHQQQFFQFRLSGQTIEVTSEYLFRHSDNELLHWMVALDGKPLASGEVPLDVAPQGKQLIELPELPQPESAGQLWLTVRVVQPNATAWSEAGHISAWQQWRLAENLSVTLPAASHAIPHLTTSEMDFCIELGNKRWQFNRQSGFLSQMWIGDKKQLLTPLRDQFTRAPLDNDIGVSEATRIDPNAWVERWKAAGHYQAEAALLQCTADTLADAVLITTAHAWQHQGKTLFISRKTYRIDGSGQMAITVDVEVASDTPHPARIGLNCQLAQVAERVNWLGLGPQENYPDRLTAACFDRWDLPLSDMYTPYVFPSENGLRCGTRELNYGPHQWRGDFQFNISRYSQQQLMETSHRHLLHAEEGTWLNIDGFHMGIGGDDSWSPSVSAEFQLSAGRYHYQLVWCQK", "assay": "beta-galactosidase enzyme inhibitors and activators, dose response, artefact control for CCR6 antagonist project, biochemical, E. coli enzyme, set 3 (AID 504712)", "assay_type": "functional"}, "Vero": {"test_system": "Vero", "assay": "Vero cell cytotoxicity, cytotoxicity control for flavivirus capping enzyme inhibitors (AID 588742)", "assay_type": "functional", "details": "Chlorocebus sabaeus"}, "[1]": {"test_system": "Streptococcus sp. 'group A'", "assay": "growth inhibition of control SK(-) GAS strain, dose response, counter-screen for streptokinase expression inhibitor project, luminescence, kanamycin, BacTiterGlo, confirmation (AID 1900)", "assay_type": "functional, organism-based"}, "Streptokinase A": {"biological_target": "T1, Streptokinase A (Streptococcus pyogenes serotype M1, UniProt P10520)", "T1 sequence (P10520 whole entry)": "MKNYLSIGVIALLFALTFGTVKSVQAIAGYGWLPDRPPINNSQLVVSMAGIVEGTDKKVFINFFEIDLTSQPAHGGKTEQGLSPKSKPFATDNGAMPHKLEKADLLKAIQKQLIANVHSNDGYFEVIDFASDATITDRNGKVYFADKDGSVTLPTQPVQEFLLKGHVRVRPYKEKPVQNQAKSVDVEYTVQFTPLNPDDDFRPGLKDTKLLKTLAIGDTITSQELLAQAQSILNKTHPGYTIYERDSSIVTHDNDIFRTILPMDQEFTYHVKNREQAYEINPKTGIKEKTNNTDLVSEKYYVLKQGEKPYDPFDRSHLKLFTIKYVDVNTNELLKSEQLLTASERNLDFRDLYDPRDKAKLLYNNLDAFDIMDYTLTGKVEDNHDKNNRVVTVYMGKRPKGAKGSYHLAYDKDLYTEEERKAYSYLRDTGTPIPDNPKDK", "assay": "S. pyogenes streptokinase expression inhibitors, potency, dose response, plasminogen activation absorbance, OD405 (AID 1914);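 further: secreted streptokinase activity via plasminogen activation per viability signal from cell pellet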", "assay_type": "functional, Streptococcus pyogenes M1 GAS"}, "Streptococcus [2]": {"test_system": "Streptococcus", "assay": "Luminescence Microorganism-Based Dose Response Follow up to Identify Compounds Cytotoxic to Streptococcus. [Related pubchem assays: 1677 (Project Summary), 1915, 1914, 1902 (Retest at Dose), 1900 (Counter Screen), 1662 (Primary HTS)]", "assay_type": "functional, organism-based"}, "Streptococcus [3]": {"test_system": "Streptococcus", "assay": "Group A Streptococcus viability loss, dose response, counter-screen for streptokinase expression inhibitor project, luminescence, BacTiterGlo (AID 1915);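 further: potency for reduction of bacterial viability or growth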", "assay_type": "functional, organism-based"}, "HEK293": {"test_system": "HEK293", "assay": "Fluorescence-based counterscreen for potentiators or agonists of NPY-Y2: cell-based high-throughput dose response assay to identify inhibitors of cyclic nucleotide gated ion channel (CNGC) activity. In this assay, the parental HEK293 cell line transfected with a cyclic-nucleotide gated ion channel (CNGC)-based cAMP sensor is used to measure inhibition of isoproterenol-induced CNGC activity by test compound.", "assay_type": "functional", "details": "Homo sapiens"}, "[4]": {"biological_target": "Eukaryotic translation initiation factor 4E (Mus musculus, UniProt P63073)", "sequence (P63073 whole entry)": "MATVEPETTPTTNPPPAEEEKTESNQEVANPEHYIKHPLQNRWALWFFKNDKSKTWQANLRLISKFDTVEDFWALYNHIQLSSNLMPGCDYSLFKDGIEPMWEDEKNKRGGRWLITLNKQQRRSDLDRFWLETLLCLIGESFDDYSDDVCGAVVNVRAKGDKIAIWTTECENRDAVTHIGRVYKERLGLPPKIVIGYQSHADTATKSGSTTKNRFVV", "assay": "eIF4E–eIF4G protein interaction inhibitors, dose response, biochemical, TR-FRET (AID 855);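 further: potency for disrupting eIF4E binding to eIF4GI seen as loss of FRET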", "assay_type": "functional"}, "[5]": {"biological_target": "T2, Neuropeptide Y receptor type 2 (Homo sapiens, UniProt P49146)", "T2 sequence (P49146 whole entry)": "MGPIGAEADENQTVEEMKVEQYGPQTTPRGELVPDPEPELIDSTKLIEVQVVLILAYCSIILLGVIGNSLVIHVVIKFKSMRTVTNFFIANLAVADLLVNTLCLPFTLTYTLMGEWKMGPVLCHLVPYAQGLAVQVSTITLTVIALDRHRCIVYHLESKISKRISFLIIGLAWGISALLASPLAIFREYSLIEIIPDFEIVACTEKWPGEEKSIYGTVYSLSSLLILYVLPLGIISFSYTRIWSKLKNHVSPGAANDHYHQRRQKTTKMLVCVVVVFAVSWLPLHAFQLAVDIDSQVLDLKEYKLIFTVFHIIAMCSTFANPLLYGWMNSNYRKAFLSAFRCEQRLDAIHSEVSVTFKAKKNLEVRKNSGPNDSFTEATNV", "assay": "Fluorescence-based cell-based high-throughput dose response assay for agonists of NPY-Y2. [Related pubchem assays: 1703 (Screening assay (CNGC inhibitors).), 1359 (Screening assay (NPY-Y2 potentiators or agonists).), 1304 (Screening assay (NPY-Y1 potentiators or agonists).), 1710 (Screening assay (NPY-Y2 agonists).), 1791 (Summary AID.)]", "assay_type": "functional"}, "[6]": {"biological_target": "T3, Neuropeptide Y receptor type 1 (Homo sapiens, UniProt P25929)", "T3 sequence (P25929 whole entry)": "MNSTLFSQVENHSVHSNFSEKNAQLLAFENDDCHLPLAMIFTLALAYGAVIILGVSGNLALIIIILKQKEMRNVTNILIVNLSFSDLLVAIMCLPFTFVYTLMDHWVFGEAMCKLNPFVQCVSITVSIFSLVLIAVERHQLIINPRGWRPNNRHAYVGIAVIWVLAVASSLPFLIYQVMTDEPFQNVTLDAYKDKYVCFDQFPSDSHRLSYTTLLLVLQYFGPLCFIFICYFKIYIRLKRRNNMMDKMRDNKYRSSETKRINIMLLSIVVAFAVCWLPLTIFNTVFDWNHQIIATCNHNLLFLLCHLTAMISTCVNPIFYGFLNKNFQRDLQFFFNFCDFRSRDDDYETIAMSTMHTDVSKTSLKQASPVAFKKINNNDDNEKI", "assay": "Fluorescence-based counterscreen for agonists of NPY-Y2: cell-based high-throughput dose response assay for agonists of NPY-Y1.", "assay_type": "functional"}, "[7]": {"biological_target": "T4, Short transient receptor potential channel 4 (Mus musculus, UniProt Q9QUQ5)", "T4 sequence (Q9QUQ5 whole entry)": "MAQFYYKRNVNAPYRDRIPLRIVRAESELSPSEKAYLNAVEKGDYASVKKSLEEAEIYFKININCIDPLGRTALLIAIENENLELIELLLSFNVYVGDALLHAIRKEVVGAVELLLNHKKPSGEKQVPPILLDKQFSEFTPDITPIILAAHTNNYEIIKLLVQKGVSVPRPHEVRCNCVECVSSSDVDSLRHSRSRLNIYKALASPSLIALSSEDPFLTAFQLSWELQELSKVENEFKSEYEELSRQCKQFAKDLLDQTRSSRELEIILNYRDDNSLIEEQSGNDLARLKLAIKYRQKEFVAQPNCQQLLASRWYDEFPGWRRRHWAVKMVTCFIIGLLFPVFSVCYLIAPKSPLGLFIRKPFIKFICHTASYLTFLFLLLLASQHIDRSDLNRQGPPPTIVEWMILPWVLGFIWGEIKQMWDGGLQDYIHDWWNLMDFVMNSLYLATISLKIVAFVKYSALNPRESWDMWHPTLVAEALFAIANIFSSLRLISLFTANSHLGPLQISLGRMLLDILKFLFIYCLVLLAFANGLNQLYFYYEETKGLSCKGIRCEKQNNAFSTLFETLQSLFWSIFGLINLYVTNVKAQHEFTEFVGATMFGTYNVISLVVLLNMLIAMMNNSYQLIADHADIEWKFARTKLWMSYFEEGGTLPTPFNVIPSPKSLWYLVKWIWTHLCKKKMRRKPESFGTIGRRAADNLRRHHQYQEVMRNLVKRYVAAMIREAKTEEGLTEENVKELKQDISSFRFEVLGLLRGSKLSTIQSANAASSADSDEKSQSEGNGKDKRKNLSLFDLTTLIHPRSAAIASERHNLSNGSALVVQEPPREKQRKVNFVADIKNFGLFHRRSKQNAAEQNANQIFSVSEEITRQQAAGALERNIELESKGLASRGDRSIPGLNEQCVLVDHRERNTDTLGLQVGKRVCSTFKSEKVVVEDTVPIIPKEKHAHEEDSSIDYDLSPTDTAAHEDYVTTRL", "assay": "mouse TRPC4 channel inhibitors, dose response, cell-based, HEK293 TRPC4/mu-opioid, Fluo-4 calcium (AID 434942)", "assay_type": "functional"}, "Protein Rev": {"biological_target": "Protein Rev (Human immunodeficiency virus type 1 group M subtype B (isolate HXB2)(HIV-1), UniProt P04618)", "sequence (P04618 whole entry)": "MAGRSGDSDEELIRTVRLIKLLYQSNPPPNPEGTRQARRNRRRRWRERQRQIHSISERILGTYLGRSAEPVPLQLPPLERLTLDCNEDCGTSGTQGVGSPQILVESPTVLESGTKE", "assay": "inhibitors of Rev binding to RRE RNA, dose response, biochemical, fluorescence polarization, HIV-1 (AID 434976)", "set-up": "species or system Human immunodeficiency virus 1"}, "[8]": {"biological_target": "Female germline-specific tumor suppressor gld-1 (Caenorhabditis elegans, UniProt Q17339)", "sequence (Q17339 whole entry)": "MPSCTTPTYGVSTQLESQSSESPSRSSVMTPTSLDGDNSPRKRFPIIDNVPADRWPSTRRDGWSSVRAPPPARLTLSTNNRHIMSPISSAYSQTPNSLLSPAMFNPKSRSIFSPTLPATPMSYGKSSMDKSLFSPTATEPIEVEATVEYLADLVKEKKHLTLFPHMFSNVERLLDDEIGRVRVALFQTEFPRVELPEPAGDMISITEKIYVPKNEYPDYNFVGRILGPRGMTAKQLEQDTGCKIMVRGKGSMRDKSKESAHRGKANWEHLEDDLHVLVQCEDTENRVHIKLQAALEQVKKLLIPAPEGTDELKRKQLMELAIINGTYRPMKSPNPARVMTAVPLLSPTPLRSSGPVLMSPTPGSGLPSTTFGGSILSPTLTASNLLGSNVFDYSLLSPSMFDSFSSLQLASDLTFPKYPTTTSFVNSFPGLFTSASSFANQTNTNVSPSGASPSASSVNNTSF", "assay": "inhibitors of GLD-1 binding to TGE RNA, dose response, biochemical, fluorescence polarization, C. elegans (AID 2802);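 further: fluorescence polarization of labeled TGE RNA bound by purified gld-1 protein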"}, "[9]": {"assay": "growth suppression of beta-catenin-knockout colon cells, dose response, cell-based, HCT116, human colon tumor (AID 1045);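 further: HCT116 colon tumor cells with beta catenin knocked out; cells exposed to compound for 60 hours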", "assay_type": "functional"}, "[10]": {"assay": "growth suppression of PTEN-null colon cells, dose response, cell-based, HCT116 PTEN knockout (AID 1047);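 further: HCT116 colon tumor cells with PTEN knocked out; cells exposed to compound for 60 hours before readout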", "assay_type": "functional"}, "[11]": {"biological_target": "G-protein coupled receptor 35 (Homo sapiens, UniProt Q9HC97)", "sequence (Q9HC97 whole entry)": "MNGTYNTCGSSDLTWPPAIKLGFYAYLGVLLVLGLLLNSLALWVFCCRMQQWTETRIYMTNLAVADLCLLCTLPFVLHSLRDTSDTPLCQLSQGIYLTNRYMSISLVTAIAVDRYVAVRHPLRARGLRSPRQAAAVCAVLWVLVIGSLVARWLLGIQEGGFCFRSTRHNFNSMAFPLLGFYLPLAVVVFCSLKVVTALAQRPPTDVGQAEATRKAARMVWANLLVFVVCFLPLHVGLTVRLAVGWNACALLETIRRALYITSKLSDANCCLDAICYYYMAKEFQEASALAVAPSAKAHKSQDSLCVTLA", "assay": "GPR35 antagonists blocking zaprinast-driven arrestin recruitment, primary screen, imaging, U2OS, beta-arrestin-GFP, zaprinast agonist (AID 2058);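 further: antagonist potency meaning inhibition of agonist-induced arrestin redistribution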", "assay_type": "functional"}, "[12]": {"assay": "inhibitors of intracellular T. cruzi replication, confirmation, NIH3T3 host cells, beta-gal luminescence (AID 2044);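 further: luminescent beta-galactosidase reporter signal from transgenic T. cruzi replicating inside host cells; inhibitors lower the luminescence signal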", "assay_type": "functional, cell-based"}, "[13]": {"assay": "cytotoxicity toward NIH3T3 fibroblasts, dose response, counter-screen, cell-based, ATP luminescence, mouse fibroblasts (AID 2010);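 further: cells exposed to compound for about 90 hours before reading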", "assay_type": "functional"}, "X-box-binding protein 1": {"biological_target": "X-box-binding protein 1 (Homo sapiens, UniProt P17861)", "sequence (P17861 whole entry)": "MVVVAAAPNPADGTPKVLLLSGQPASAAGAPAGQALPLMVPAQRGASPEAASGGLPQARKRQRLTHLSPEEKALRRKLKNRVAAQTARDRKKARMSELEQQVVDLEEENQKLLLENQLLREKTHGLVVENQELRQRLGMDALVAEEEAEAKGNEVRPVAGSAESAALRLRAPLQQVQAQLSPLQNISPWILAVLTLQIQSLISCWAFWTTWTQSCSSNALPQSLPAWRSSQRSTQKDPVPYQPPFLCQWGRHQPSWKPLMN", "assay_type": "functional, Cricetulus griseus"}}, "note": "The source made the active and inactive calls.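 Wherever Absolute IC50 (XBP1) is given: confirmatory dose-response counter-screen serving a CHOP assay.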"}
{"smiles": "O=C(N/N=C/c1cc([N+](=O)[O-])ccc1O)Nc1ccccc1", "values": [{"measurement": "IC50", "setting": "Beta-galactosidase", "value": "> 66.6 µM (inactive)"}, {"measurement": "CC50", "setting": "Vero", "value": "35.1 µM (active)"}]}
{"smiles": "CC1CCN(C(=O)N2c3ccccc3Sc3ccccc32)CC1", "values": [{"measurement": "EC50", "setting": "[1]", "value": "13.8 µM (active)"}, {"measurement": "EC50", "setting": "Streptokinase A", "value": "> 150 µM (not active)"}, {"measurement": "EC50", "setting": "Streptococcus [2]", "value": "> 500 µM (not active)"}, {"measurement": "EC50", "setting": "Streptococcus [3]", "value": "28.5 µM (active)"}]}
{"smiles": "Cc1cccc(N2CCc3c2nc2ccccc2c3N)c1", "values": [{"measurement": "EC50", "setting": "HEK293", "value": "9.3 µM (active)"}, {"measurement": "IC50", "setting": "[4]", "value": "> 64 µM (inactive)"}, {"measurement": "EC50", "setting": "[5]", "value": "3.43 µM (active)"}, {"measurement": "EC50", "setting": "[6]", "value": "3.07 µM (active)"}, {"measurement": "EC50", "setting": "[7]", "value": "1.06 µM (active)"}]}
{"smiles": "C=CCNC(=O)/C(C#N)=C/c1ccccc1[N+](=O)[O-]", "values": [{"measurement": "IC50", "setting": "Protein Rev", "value": "10.4 µM (not active)"}, {"measurement": "IC50", "setting": "[8]", "value": "1.1 µM (active)"}]}
{"smiles": "CCOc1ccc(NC(=O)C(C)Oc2ccccc2C(=O)Nc2ccc(C)c(Cl)c2)cc1", "note": "(centres undefined)", "values": [{"measurement": "EC50", "setting": "[9]", "value": "19.6 µM (active)"}, {"measurement": "EC50", "setting": "[10]", "value": "17.9 µM (active)"}, {"measurement": "IC50", "setting": "[11]", "value": "1.31 µM (active)"}, {"measurement": "EC50", "setting": "[12]", "value": "2.06 µM (active)"}, {"measurement": "EC50", "setting": "[13]", "value": "> 60 µM (not active)"}]}
{"smiles": "CCCCCCn1c(SCCC)nc2c1c(=O)[nH]c(=O)n2C", "values": [{"measurement": "Absolute IC50 (XBP1)", "setting": "X-box-binding protein 1", "value": 10, "unit": "µM"}]}
